# Experimental data as given in patent US20020197269A1, “Pharmaceutical composition for immunomodulation and preparation of vaccines” (CISTEM BIOTECHNOLOGIES GMBH, priority 2000, published 2002).
# In the oligonucleotide strings, read from the 5' end, every base follows the letter of its sugar. An asterisk marks phosphorothioate; unmarked linkages are phosphodiester. Other units and linkages are bracketed, terminal groups are in braces. A string of capitals states the bases alone. d = 2'-deoxy (DNA)
# Tested on: MC1R-peptide (WGPFFLHL) specific IFN-γ-producing cells
# Experiment: IFN-γ-ELISPOT after footpad injection with MC1R-peptide (Example 3)
# Assay type: in vivo, Mice C57B1/6
# Settings: co-injected with MC1R-peptide 300 μg/mouse into hind footpads; 4 days after injection; CpG-ODN 5 nmol/mouse
substance,measurement,value
CpG 1668: thiophosphate substituted ODNs containing a CpG motif: TCCATGACGTTCCTGATGCT (DNA dT*dC*dC*dA*dT*dG*dA*dC*dG*dT*dT*dC*dC*dT*dG*dA*dT*dG*dC*dT),peptide-specific IFN-γ-producing cells / peptide-specific response (IFN-γ-ELISPOT),low numbers
